# Results as given in patent publication US10463644B2, “Uses of sesquiterpene lactone compounds and their derivatives in drugs preparation” (ACCENDATECH, priority 2013, dated 2019).
# Where two headings read alike, the source gives them in different places.
# How the values were obtained:
# [1] = test system: IL-1β secreted by synoviocyte; assay: Content of IL-1β in culture supernatant of synoviocyte of RA model rats given test compound; type: in vivo; conditions: rat RA model, dose 30 mg/kg.2d; normal control 0.16 ± 0.034, NaCl 0.49 ± 0.136
# Procedure, shortened: (§1)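 Test article is given to RA rats at 30 mg/kg.2d, and synoviocytes are isolated and cultured. Secreted TNF-α and PGE2 in the culture medium are measured by a shared protocol, while IL-1β release is measured by a different protocol. Comparison groups are saline (NaCl) and normal control rats.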
# normal cells = assay: Survival rate of normal cells after test compound is added (flow cytometry, Annexin V-FITC/PI); type: cell-based; conditions: 18 h
# Procedure, shortened: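 Patient specimens (e.g. AML, CD34+/CD38+ stem-cell marker) separated on Ficoll; mononuclear cells at 1×10^6/mL in serum-free IMDM treated 18 h with compound. Cells stained for stem-cell markers, then Annexin V-FITC/PI, and apoptosis measured by flow cytometry within one hour.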
# cancer cells = assay: Survival rate of cancer cells after test compound is added (flow cytometry, Annexin V-FITC/PI, clinical specimen); type: cell-based, patient; conditions: Homo sapiens, 18 h, read-out: Survival rate (%) All cells (Stem cells and ordinary cells)
# Procedure, shortened: (§2)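 Steps: density-gradient isolation of mononuclear cells from fresh or cryopreserved clinical samples; 18-hour compound exposure at 1×10^6 cells/mL; staining for stem-cell surface markers, then Annexin V-FITC and PI; flow cytometric apoptosis analysis.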
# cancer stem cells = assay: Survival rate of cancer stem cells after test compound is added (flow cytometry, Annexin V-FITC/PI, clinical specimen); type: cell-based, patient; conditions: Homo sapiens, 18 h
# Procedure, shortened: as §2
# [2] = test system: PGE2 secreted by synoviocyte; assay: Content of PGE2 in culture supernatant of synoviocyte of RA model rats given test compound; type: in vivo; conditions: rat RA model, dose 30 mg/kg.2d; normal control 8.34 ± 1.29, NaCl 32.44 ± 10.32
# Procedure, shortened: as §1
# [3] = read-out: Survival rate (%) All cells (Stem cells and ordinary cells)
# [4] = read-out: Survival rate (%) Stem cells
# [5] = Head and neck squamous cell carcinomas
smiles,measurement,setting,value
C=C1C(=O)O[C@@H]2[C@@H]3[C@@H](CC[C@@]3(C)O)C(=C)CC[C@@H]12 [Compound 48],Content of IL-1β in culture supernatant of synoviocyte (x ± s),[1],0.38 ± 0.046 ng/mL
same,viability at 10 µM,normal cells; [3],92%
same,viability at 10 µM,normal cells; [4],91%
same,viability at 20 µM,normal cells; [3],91%
same,viability at 20 µM,normal cells; [4],89%
same,viability at 10 µM,cancer cells; AML,59%
same,viability at 20 µM,cancer cells; AML,48%
same,viability at 10 µM,cancer cells; Brain glioma,66%
same,viability at 20 µM,cancer cells; Brain glioma,54%
same,viability at 10 µM,cancer cells; Brain tumor,78%
same,viability at 20 µM,cancer cells; Brain tumor,69%
same,viability at 10 µM,cancer cells; Breast cancer,76%
same,viability at 20 µM,cancer cells; Breast cancer,58%
same,viability at 10 µM,cancer cells; CLL,67%
same,viability at 20 µM,cancer cells; CLL,48%
same,viability at 10 µM,cancer cells; CML,69%
same,viability at 20 µM,cancer cells; CML,51%
same,viability at 10 µM,cancer cells; Children hepatoblastoma,75%
same,viability at 20 µM,cancer cells; Children hepatoblastoma,68%
same,viability at 10 µM,cancer cells; Colon adenocarcinoma,66%
same,viability at 20 µM,cancer cells; Colon adenocarcinoma,56%
same,viability at 10 µM,cancer cells; Colorectal cancer,79%
same,viability at 20 µM,cancer cells; Colorectal cancer,67%
same,viability at 10 µM,cancer cells; Gastric cancer,66%
same,viability at 20 µM,cancer cells; Gastric cancer,48%
same,viability at 10 µM,cancer cells; Gastrointestinal tumor,73%
same,viability at 20 µM,cancer cells; Gastrointestinal tumor,62%
same,viability at 10 µM,cancer cells; Glioma,78%
same,viability at 20 µM,cancer cells; Glioma,74%
same,viability at 10 µM,cancer cells; [5],73%
same,viability at 20 µM,cancer cells; [5],68%
same,viability at 10 µM,cancer cells; Laryngeal cancer,76%
same,viability at 20 µM,cancer cells; Laryngeal cancer,66%
same,viability at 10 µM,cancer cells; Liver cancer,82%
same,viability at 20 µM,cancer cells; Liver cancer,73%
same,viability at 10 µM,cancer cells; Lung adenocarcinoma,77%
same,viability at 20 µM,cancer cells; Lung adenocarcinoma,64%
same,viability at 10 µM,cancer cells; Lung cancer,72%
same,viability at 20 µM,cancer cells; Lung cancer,67%
same,viability at 10 µM,cancer cells; Malignant melanoma,88%
same,viability at 20 µM,cancer cells; Malignant melanoma,86%
same,viability at 10 µM,cancer cells; Nasopharynx cancer,64%
same,viability at 20 µM,cancer cells; Nasopharynx cancer,59%
same,viability at 10 µM,cancer cells; Ovarian cancer,68%
same,viability at 20 µM,cancer cells; Ovarian cancer,61%
same,viability at 10 µM,cancer cells; Pancreatic cancer,68%
same,viability at 20 µM,cancer cells; Pancreatic cancer,62%
same,viability at 10 µM,cancer cells; Prostate cancer,75%
same,viability at 20 µM,cancer cells; Prostate cancer,62%
same,viability at 10 µM,cancer cells; Retinoblastoma,82%
same,viability at 20 µM,cancer cells; Retinoblastoma,69%
same,viability at 10 µM,cancer cells; Skin cancer,62%
same,viability at 20 µM,cancer cells; Skin cancer,47%
same,viability at 10 µM,cancer stem cells; AML,47%
same,viability at 20 µM,cancer stem cells; AML,38%
same,viability at 10 µM,cancer stem cells; Brain glioma,52%
same,viability at 20 µM,cancer stem cells; Brain glioma,43%
same,viability at 10 µM,cancer stem cells; Brain tumor,66%
same,viability at 20 µM,cancer stem cells; Brain tumor,53%
same,viability at 10 µM,cancer stem cells; Breast cancer,54%
same,viability at 20 µM,cancer stem cells; Breast cancer,47%
same,viability at 10 µM,cancer stem cells; CLL,46%
same,viability at 20 µM,cancer stem cells; CLL,38%
same,viability at 10 µM,cancer stem cells; CML,51%
same,viability at 20 µM,cancer stem cells; CML,46%
same,viability at 10 µM,cancer stem cells; Children hepatoblastoma,68%
same,viability at 20 µM,cancer stem cells; Children hepatoblastoma,56%
same,viability at 10 µM,cancer stem cells; Colon adenocarcinoma,58%
same,viability at 20 µM,cancer stem cells; Colon adenocarcinoma,49%
same,viability at 10 µM,cancer stem cells; Colorectal cancer,66%
same,viability at 20 µM,cancer stem cells; Colorectal cancer,55%
same,viability at 10 µM,cancer stem cells; Gastric cancer,51%
same,viability at 20 µM,cancer stem cells; Gastric cancer,39%
same,viability at 10 µM,cancer stem cells; Gastrointestinal tumor,57%
same,viability at 20 µM,cancer stem cells; Gastrointestinal tumor,52%
same,viability at 10 µM,cancer stem cells; Glioma,69%
same,viability at 20 µM,cancer stem cells; Glioma,60%
same,viability at 10 µM,cancer stem cells; [5],64%
same,viability at 20 µM,cancer stem cells; [5],58%
same,viability at 10 µM,cancer stem cells; Laryngeal cancer,63%
same,viability at 20 µM,cancer stem cells; Laryngeal cancer,55%
same,viability at 10 µM,cancer stem cells; Liver cancer,74%
same,viability at 20 µM,cancer stem cells; Liver cancer,61%
same,viability at 10 µM,cancer stem cells; Lung adenocarcinoma,67%
same,viability at 20 µM,cancer stem cells; Lung adenocarcinoma,55%
same,viability at 10 µM,cancer stem cells; Lung cancer,61%
same,viability at 20 µM,cancer stem cells; Lung cancer,54%
same,viability at 10 µM,cancer stem cells; Malignant melanoma,82%
same,viability at 20 µM,cancer stem cells; Malignant melanoma,76%
same,viability at 10 µM,cancer stem cells; Nasopharynx cancer,57%
same,viability at 20 µM,cancer stem cells; Nasopharynx cancer,48%
same,viability at 10 µM,cancer stem cells; Ovarian cancer,56%
same,viability at 20 µM,cancer stem cells; Ovarian cancer,45%
same,viability at 10 µM,cancer stem cells; Pancreatic cancer,55%
same,viability at 20 µM,cancer stem cells; Pancreatic cancer,49%
same,viability at 10 µM,cancer stem cells; Prostate cancer,62%
same,viability at 20 µM,cancer stem cells; Prostate cancer,51%
same,viability at 10 µM,cancer stem cells; Retinoblastoma,62%
same,viability at 20 µM,cancer stem cells; Retinoblastoma,54%
same,viability at 10 µM,cancer stem cells; Skin cancer,46%
same,viability at 20 µM,cancer stem cells; Skin cancer,39%
same,Content of PGE2 in culture supernatant of synoviocyte (x ± s),[2],26.65 ± 2.45 ng/mL
